# Data as given in PMC8989888, “Development of optimized drug-like small molecule inhibitors of the SARS-CoV-2 3CL protease for treatment of COVID-19” (Nature Communications, 2022).
# Where “and” joins values, the source holds several entries; their conditions need not be identical. Equal entries are not always repeated. Where two headings read alike, the source gives them in different places.
# Target: SARS-CoV-2 3CL protease (Severe acute respiratory syndrome coronavirus 2, UniProt P0DTD1)
# Test: biochemical
# Settings: for activity against SARS-CoV-2 3CL protease (in words): compound 4 analogs
# [1] = 0.2 µM protease with 50 µM tested compound, replicates
# [2] = 200 nM protease, read-out: IC50
Structure (SMILES),Normalized SARS-CoV-2 3CL protease activity,Normalized SARS-CoV-2 3CL protease activity [1],IC50 [2] [µM],activity against SARS-CoV-2 3CL protease (in words),IC90 (200 nM protease) [µM],IC50 (IC50) [µM]
CS(=O)(=O)c1nc(C(F)(F)F)ccc1C#N [NT-1-32],0.9191 and 0.9056 and 0.7525,,,,,
COC(=O)[C@H](C[C@@H]1CCNC1=O)NC(=O)OC(C)(C)C [AZVIII-38],,1.058 and 1.088 and 0.9126,> 50,did not produce active compounds,,
CC(C)(C)OC(=O)NC(CC1CCNC1=O)Cn1sc2ccccc2c1=O (centres unmarked) [AZVIII-43A],,1.104 and 1.129 and 1.238,> 50,did not produce active compounds,,
CC(C)(C)OC(=O)NC(C=O)CC1CCNC1=O (centres unmarked) [AZVIII-42],,0.09531 and 0.1273 and 0.138,,functioned slightly better,> 50,
CC(C)(C)OC(=O)NC(CO)CC1CCNC1=O (centres unmarked) [AZVIII-30],,0.9915 and 0.9651 and 0.9186,> 50,did not produce active compounds,,
O=S(=O)(NCc1ccncn1)c1ccccc1 [AZVIII-49F],,1.058 and 1.081 and 1.099,> 50,,,
COc1ccc(CNS(=O)(=O)c2cccnc2)cc1 [AZVIII-44H],,0.9803 and 0.9852 and 1.015,> 50,,,
CCOC(=O)/C=C/[C@H](C[C@@H]1CCNC1=O)NC(=O)[C@H](CC(C)C)NC(=O)OC(C)(C)C [AZVIII-33B],,1.107 and 0.6918 and 1.159,> 50,inactive,,
O=S(=O)(NCc1cccnc1)c1cccnc1 [AZVIII-44B],,1.138 and 1.193 and 1.162,> 50,,,
CSc1ncccc1C#N [NT-1-21],,1.059 and 1.079 and 0.9766,,,,
"O=c1[nH]sc2ccccc12 [AZVIII-40A, 1,2-Benzisothiazol-3(2H)-one, reference compound]",,,,,,0.79
O=S(=O)(NCc1ccccc1)c1cccnc1 [AZVIII-44E],,1.222 and 1.184 and 1.143,> 50,,,
